26 molecules from PubChem BioAssay (NCI) can be followed below.

Experiment in all cases: DTP human tumour cell line panel, 48 h
In experiment [1] the test system is CAKI-1 renal.
Experiment [2] has as its system KM20L2 colon.
The subject of experiment [3] is LXFL 529 NSCLC.
For experiment [4], the system named is UO-31 renal.
Experiment [5] concerns DLD-1 colon.
In experiment [6] the test system is NCI-H522 lung.
Experiment [7] concerns DU-145 prostate.
Experiment [8] concerns MDA-MB-435.
Experiment [9] concerns PC-3 prostate.

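Compound exposure: 48 hours, 5 concentrations, 96-well plates. Here, GI50 denotes the concentration required for 50% inhibition of growth. At the TGI there is no net growth.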

For `COc1ccc(C2=NNC(=O)OC2c2ccccc2)cc1` (configuration not stated), the TGI in experiment [1], in experiment [2], in experiment [3] and in experiment [4] was > 100 µM each time.

As to `COc1ccc(/C(=N/NC(=O)NN)C(c2ccc(OC)cc2)C2(O)CNc3c(Cl)cc(Cl)cc32)cc1` (configuration not stated), the TGI in experiment [5], in experiment [2], in experiment [3], in experiment [6] and in [4] was > 100 µM in each case.

Consider `Cc1cc2cc3cc(C)c(N(C)C)cc3nc2cc1N(C)C`, for which the GI50 was 2.22 µM in [1]; 3.46 µM in [7]; 2.77 µM in experiment [8]; 3.76 µM in experiment [6]; 2.4 µM in experiment [9]; 6 µM in [4]. Further, the TGI is 25.3 µM in experiment [1]; 25.8 µM in experiment [7]; 11.8 µM in experiment [8]; 30 µM in experiment [6]; 39.9 µM in experiment [9]; > 100 µM in [4].

Take `Cc1nc2sccn2c(=O)c1CCN1CCC(=C(c2ccc(F)cc2)c2ccc(F)cc2)CC1`: the GI50 was 12.9 µM in experiment [1]; 15.7 µM in experiment [7]; 14.2 µM in experiment [8]; 11.1 µM in experiment [6]; 4.81 µM in [9]; 4.06 µM in [4]. The TGI in experiment [1] is 25.7 µM; in [7] it was 30.4 µM; in experiment [8], 28.2 µM; in experiment [6], 25.7 µM; in experiment [9] it was 19.3 µM; in experiment [4], 18.8 µM.

Regarding `CC(=O)c1c(C(F)(F)F)n([O-])c2ccc(Cl)cc2[n+]1=O`, the GI50 is 3.69 µM in experiment [1]; 0.158 µM in experiment [7]; 2.8 µM in experiment [8]; 2.5 µM in experiment [6]; 1.92 µM in [4]. Also, the TGI in [1] worked out at 13.5 µM; in experiment [7], 0.576 µM; in experiment [8], 9.94 µM; in experiment [6] it was 9.62 µM; in [9], 2.79 µM.

Regarding `CN(C)c1ccc(N=Cc2c([O-])ccc3ccccc23)cc1.[C-]#[O+].[C-]#[O+].[Ir]`, the GI50 in [1] is 22 µM; in experiment [5] it was 17.4 µM; in experiment [2], 18.7 µM; in experiment [3], 12.5 µM; in [6], 5.7 µM; in experiment [4], 15.6 µM. Moreover, the TGI in experiment [1] stood at 40.7 µM; in experiment [5], 37.6 µM; in [2] it was 33.4 µM; in experiment [3], 25.9 µM; in [6], 18.6 µM; in experiment [4], 36.4 µM.

For `CC(C)(C)[Si](C)(C)OCC1OC(n2cnc3c(NC(=O)c4ccccc4)ncnc32)CC1O` (configuration not stated), the TGI in experiment [1] was > 100 µM; in [7], > 100 µM; in experiment [8], 44.6 µM; in experiment [6], 37.7 µM; in experiment [9], 95.5 µM; in experiment [4] it was 2.96 µM.

For `C/C(=N\NC(=O)c1ccncc1)c1ccc2ccccc2c1O`, the TGI in experiment [1] was > 84.5 µM; in experiment [7], 38.2 µM; in experiment [8] it was > 100 µM; in experiment [6], 12.4 µM; in [9], 96.9 µM; in experiment [4], 38.5 µM.

As to `CCN(CC)c1cc(/C=C/c2ccc(OC)c(OC)c2)nc2cc(F)c(F)cc12`, the GI50 in experiment [1] was 19 µM; in experiment [7] it was 31.6 µM; in experiment [8], > 100 µM; in experiment [6], 6.35 µM; in experiment [9] it was > 100 µM; in experiment [4] it was 38.7 µM. Moreover, the TGI in [1], in experiment [7], in experiment [8], in [6], in experiment [9] and in [4] was > 100 µM in each case.

Take `COc1ccc(Nn2c(SCC(=O)Nc3nc(-c4ccc(Cl)cc4)cs3)nc(C)c2C)cc1`: the GI50 is 2.16 µM in [1]; 4.06 µM in experiment [7]; 3.22 µM in [8]; 5.05 µM in experiment [6]; 2.65 µM in [9]; 2.62 µM in [4]. Further, the TGI in experiment [1], in [7], in experiment [8], in experiment [6], in experiment [9] and in experiment [4] was > 100 µM each time.

For `CSc1cnn(CCC#N)c(=O)n1`, the TGI in experiment [1], in experiment [7], in experiment [8], in experiment [6], in [9] and in [4] was > 100 µM throughout.

Consider `Cc1cccc(Oc2nccc(-c3c(-c4ccc(F)cc4)ncn3C3CCNCC3)n2)c1C`, for which the GI50 was 8.79 µM in experiment [1]; > 11.4 µM in experiment [7]; 6.52 µM in [8]; 9.84 µM in [6]; 9.94 µM in experiment [9]; 4.97 µM in experiment [4]. The TGI was > 19.8 µM in experiment [1]; > 16.3 µM in [7]; > 16.1 µM in experiment [8]; > 16.2 µM in [6]; > 23.2 µM in experiment [9]; > 19.9 µM in experiment [4].

In the case of `CN(C)c1ccc(C(=C2C=CC(=[N+](C)C)C=C2)c2ccc(N(C)C)cc2)cc1` (tested in a mixture with another compound), the GI50 is 0.276 µM in experiment [1], 0.0543 µM in experiment [7], 0.0626 µM in experiment [8] and 0.0368 µM in [9]. The TGI in experiment [1] came to 1.38 µM; in experiment [7], 1.28 µM; in experiment [8], 0.676 µM; in experiment [6], 1.06 µM; in [9], 1.6 µM; in [4] it was 1.39 µM.

For the molecule `CN1CCCNc2c(c(=O)c2=O)NCCCN(C)CCCNc2c(c(=O)c2=O)NCCCN(C)CCCNc2c(c(=O)c2=O)NCCCN(C)CCCNc2c(c(=O)c2=O)NCCCN(C)CCCNc2c(c(=O)c2=O)NCCCN(C)CCCNc2c(c(=O)c2=O)NCCCN(C)CCCNc2c(c(=O)c2=O)NCCC1`, the GI50 was 6.14 µM in experiment [1]; 1.68 µM in experiment [7]; 2.68 µM in experiment [8]; 6.91 µM in experiment [6]; 7.02 µM in experiment [9]; 2.01 µM in [4]. The TGI in experiment [1] is 13.1 µM; in [7], 5.9 µM; in experiment [8] it was 11.5 µM; in [6] it was > 50 µM; in experiment [9] it was 22.2 µM; in experiment [4] it was 9.19 µM.

Consider `O=[N+]([O-])c1ccc(-c2nc(-c3ccccc3)c(-c3ccccc3)n2-c2ccccc2)cc1`, for which the GI50 in experiment [1] is 3.04 µM; in experiment [7] it was 2.72 µM; in experiment [8], 2.5 µM; in experiment [6], 3.05 µM; in experiment [9], 2.74 µM; in [4] it was 1.99 µM. The TGI was > 28.4 µM in [1]; 12.2 µM in experiment [7]; 7.63 µM in experiment [8]; > 28.4 µM in [6]; > 31.1 µM in experiment [9]; 6.67 µM in [4].

In the case of `CC(C)[C@@]12C[C@@H](OC(=O)[C@H]3CO3)[C@@](C)(O1)[C@@H]1CC[C@@H](C)[C@H]1[C@@H]2OC(=O)/C=C/c1ccccc1`, the GI50 is 6.83 µM in experiment [1]; 31.5 µM in [7]; 20.6 µM in experiment [8]; 14.3 µM in experiment [6]; 9.59 µM in [9]; 0.177 µM in experiment [4]. For the same molecule, the TGI was > 100 µM in experiment [1]; > 100 µM in experiment [7]; > 73.5 µM in experiment [8]; 32.7 µM in experiment [6]; > 88.1 µM in experiment [9]; 0.416 µM in [4].

For the molecule `COc1ccc(NC(=O)n2nc(N)c3ccccc32)cc1OC`, the GI50 is > 100 µM in [1]; 73.1 µM in [7]; > 100 µM in [8]; 34.9 µM in experiment [6]; 35.5 µM in [9]; 28.5 µM in experiment [4]. The TGI in [1], in [7], in [8], in experiment [6], in experiment [9] and in [4] was > 100 µM throughout.

For the molecule `COc1ccc(C(=O)c2ccc(OC)c(OC)c2OC)cc1`, the GI50 in [1] is 1.21 µM; in [7] it was 2.14 µM; in experiment [8] it was 0.2 µM; in [6], 1.81 µM; in experiment [9] it was 3.21 µM; in [4] it was 4.65 µM. Also, the TGI in experiment [1] was > 100 µM; in [7], 10.6 µM; in [8], 0.525 µM; in [6] it was 6.03 µM; in [9] it was > 100 µM; in [4], > 100 µM.

Consider `Cn1c2c(c3ccccc31)C1CCCCC1C1C(=O)NC(=O)C21` (configuration not stated), for which the TGI in [5], in experiment [3] and in [4] was > 100 µM each time.

Regarding `COc1ccccc1-n1c(-c2cc(O)ccc2C)cn2c3c(=O)[nH]c(=O)n(C)c3nc12`, the GI50 in experiment [1] was 2.95 µM; in [7] it was 7.04 µM; in experiment [8] it was > 100 µM; in [6], 1.79 µM; in [9], > 100 µM; in [4] it was 9.33 µM. For the same molecule, the TGI in [1] was 7.05 µM; in experiment [7] it was > 100 µM; in experiment [8], > 100 µM; in [6], > 100 µM; in [9], > 100 µM; in experiment [4], > 100 µM.

Turning to `O=C(OCc1ccccc1)N1CCN(/[N+]([O-])=N/Oc2ccc([N+](=O)[O-])cc2[N+](=O)[O-])CC1`, the GI50 in experiment [1] is 4.8 µM; in experiment [7], 5.56 µM; in experiment [8], 4.93 µM; in experiment [6] it was 3.66 µM; in experiment [9], 14.2 µM; in [4], 3.82 µM. Further, the TGI in [1] is 15.9 µM; in experiment [7], 18.7 µM; in experiment [8] it was 19.5 µM; in [6], > 100 µM; in experiment [9], 28.5 µM; in [4], > 100 µM.

`CCOC(=O)C(=O)Nc1c(F)cc(F)cc1Br`: the TGI in experiment [1], in [5], in experiment [2], in experiment [3] and in experiment [4] was > 100 µM each time.

`CCC(C)n1cc(C)c2c(C(=O)NCc3c(C)cc(C)[nH]c3=O)cc(Br)cc21` (configuration not stated): the GI50 was 94.1 µM in experiment [1]; 76.8 µM in [7]; 27.1 µM in [8]; 38 µM in experiment [6]; 19.1 µM in experiment [9]; 70.5 µM in experiment [4]. For the same molecule, the TGI is > 100 µM in experiment [1]; > 100 µM in [7]; > 100 µM in experiment [8]; > 100 µM in [6]; 66.9 µM in [9]; > 100 µM in experiment [4].

`C=C(C)[C@@H]1CC[C@]2(C)[C@H](C(=O)C=C3[C@@H]4C[C@](C)(C(=O)N5CCN(C)CC5)CC[C@]4(C)CC[C@]32C)[C@@]1(C)CCC#N`: the GI50 was 6.27 µM in experiment [1]; 7.85 µM in experiment [7]; 7.33 µM in [8]; 7.21 µM in experiment [6]; 3.17 µM in experiment [9]; 5.37 µM in [4]. The TGI in experiment [1] turned out to be 12.5 µM; in experiment [7], 15.3 µM; in experiment [8], 14.2 µM; in [6], 15.3 µM; in experiment [9], 10.4 µM; in [4], 11.3 µM.

Consider `CCCCCCCCCCCCCCCCCC1=NCCN1CS(=O)(=O)O`, for which the GI50 was 9.3 µM in experiment [1]; 5.19 µM in experiment [7]; 2.84 µM in experiment [8]; 24.5 µM in [6]; 11.4 µM in experiment [9]; 6.28 µM in experiment [4]. The TGI in experiment [1] is 22.6 µM; in [7], 17.2 µM; in experiment [8] it was 9.82 µM; in experiment [6], 54 µM; in experiment [9], 26.1 µM; in [4], 23 µM.

`COC1(OC)CC2C=C(S(=O)(=O)c3ccccc3)C1N(Cc1ccccc1)C2=O` (configuration not stated): the TGI is 96.2 µM in experiment [5]; 97.6 µM in experiment [2]; 44.9 µM in [3]; 33.9 µM in experiment [6]; > 100 µM in experiment [4].

What is called TGI is the concentration at which net growth stops. In general, GI50 refers to the concentration that inhibits growth by half.
